Columns and labels:
E. coli = test: Kirby-Bauer type assay, zone of inhibition; format: cell-based; settings: 24 h incubation
Experimental: (§1) Antimicrobial activity of the modified IRGASAN® bacteriostat was compared to that of the unmodified material in a Kirby-Bauer type assay. Three solutions of IRGASAN® bacteriostat and three solutions of modified IRGASAN® bacteriostat (3, 30 and 3000 ppm) were prepared and soaked into Whatman filter paper disks ˜6 mm in diameter and allowed to dry. The disks were placed onto the surface of nutrient agar plates that had been inoculated with 1×10^6 cells of either E. coli or Pseudomonas aeruginosa. The ability of the compounds to inhibit bacterial growth was determined by measuring the diameter of the zone of inhibition surrounding the filter paper disks after 24 h of incubation. The results (TABLE 1) indicate that there is no difference in activity between the modified and unmodified IRGASAN® bacteriostat compound.

Pseudomonas aeruginosa = test: Kirby-Bauer type assay, zone of inhibition; format: cell-based; settings: P. aeruginosa, 24 h incubation
Experimental: as §1

[1] = Dioxin (2,8 DCDD) formation during GC-MS analysis; format: physicochemical; settings: injection of a 1000 ppm solution at 270° C. (518° F.)
Experimental: Dioxin formation was compared between modified and unmodified IRGASAN® bacteriostat samples. It was determined that 2,8 DCDD was produced during analysis of unmodified IRGASAN® bacteriostat by gas-chromatography-mass spectroscopy (GC-MS), presumably during injection of the material at 270° C. (518° F.).
The structure of IRGASAN® bacteriostat was modified by derivatization with BSTFA. A 0.1 ml volume of BSTFA (Supelco inc.) was added to 1.0 ml of a 1000 ppm IRGASAN® solution. Dioxin levels were undetectable upon analysis of the modified IRGASAN® solution by GC-MS.

[2] = background statement; cited from earlier work
[3] = 3 ppm solution soaked into filter paper disk
[4] = 30 ppm solution soaked into filter paper disk
[5] = 3000 ppm solution soaked into filter paper disk

Row | SMILES | zone of inhibition at 3 ppm (E. coli; Escherichia coli, 3 ppm solution soaked into filter paper disk) | zone of inhibition at 30 ppm (E. coli; Escherichia coli, 30 ppm solution soaked into filter paper disk) | zone of inhibition at 3000 ppm (E. coli; Escherichia coli, 3000 ppm solution soaked into filter paper disk) | zone of inhibition at 3 ppm (Pseudomonas aeruginosa; Pseudomonas aeruginosa, 3 ppm solution soaked into filter paper disk) | zone of inhibition at 30 ppm (Pseudomonas aeruginosa; Pseudomonas aeruginosa, 30 ppm solution soaked into filter paper disk) | zone of inhibition at 3000 ppm (Pseudomonas aeruginosa; Pseudomonas aeruginosa, 3000 ppm solution soaked into filter paper disk) | production of DCDD (dioxin level) [1] | temperature above which the ether converts to chlorinated dioxin (DCDD) [2] | Zone of Inhibition (E. coli; [3]) | Zone of Inhibition (E. coli; [4]) | Zone of Inhibition (E. coli; [5]) | Zone of Inhibition (Pseudomonas aeruginosa; [3]) | Zone of Inhibition (Pseudomonas aeruginosa; [4]) | Zone of Inhibition (Pseudomonas aeruginosa; [5])
1 | C[Si](C)(C)Oc1cc(Cl)ccc1Oc1ccc(Cl)cc1Cl [Modified, 2,4,4′-trichloro-2′-trimethylsilyloxy diphenyl ether] | 1 mm | 4 mm | 12 mm | 0 mm | 0 mm | 0 mm | undetectable |  |  |  |  |  |  | 
2 | Oc1cc(Cl)ccc1Oc1ccc(Cl)cc1Cl [Unmodified, 2,4,4′-dichloro-2′-hydroxydiphenyl ether] |  |  |  |  |  |  | approximately 46 ppm | above 200 °C | 1 mm | 4 mm | 12 mm | 0 mm | 0 mm | 0 mm

Reference: patent US6552214B1, “Antimicrobial compound” (General Electric Company, priority 2000, dated 2003)
